The text below walks through data of patent publication US20160303133A1, “TREATMENT OF GASTROINTESTINAL AND OTHER DISORDERS” (NUMEDII, INC., priority 2013, published 2016).

The test system of test [1] is prophylactic TNBS rat colitis model. The experiment in a line: TNBS dose escalation study, colon histopathology (Example 4). On the set-up: key to colon necrosis: no: 0=No necrosis; very minimal: 0.5=Very minimal, focal, affects <2% of the total colon; minimal: 1.0=Minimal focal or multifocal, affects 2-10% of the total colon; mild: 2.0=Mild, focal or multifocal, affects 11-25% of the total colon; moderate: 3.0=Moderate focal or multifocal, affects 26-50% of the total colon; marked: 4.0=Marked focal or multifocal, affects 51-75% of the total colon; severe: 5.0=Severe affects >75% of the total colon. The test is classed as in vivo, Sprague-Dawley (SD) rats. The text has this:
Inflammation—neutrophil and macrophage infiltration predominantly, fibroplasia and neovascularization in areas of transmural necrosis 0=No inflammation 0.5=Very minimal focal infiltrates in mucosa only, affects <2% of the total colon 1.0=Minimal multifocal infiltrates in mucosa only, affects 2-10% of the total colon 2.0=Mild multifocal infiltrates affecting mucosa, submucosa, outer muscle layers and serosa, affects 11-25% of the total colon 3.0=Moderate multifocal infiltrates affecting mucosa, submucosa, outer muscle layers and serosa, affects 26-50% of the total colon 4.0=Marked multifocal to diffuse infiltrates affecting mucosa, submucosa, outer muscle layers and serosa, affects 51-75% of the total colon 5.0=Severe multifocal to diffuse infiltrates affecting mucosa, submucosa, outer muscle layers and serosa, affects >75% of the total colon. Necrosis—measure the total length of all colon sections, measure the total length of necrotic mucosa devoid of epithelium to determine % area affected 0=No necrosis 0.5=Very minimal, focal, affects <2% of the total colon 1.0=Minimal focal or multifocal, affects 2-10% of the total colon 2.0=Mild, focal or multifocal, affects 11-25% of the total colon 3.0=Moderate focal or multifocal, affects 26-50% of the total colon 4.0=Marked focal or multifocal, affects 51-75% of the total colon 5.0=Severe, affects >75% of the total colon Sprague-Dawley (SD) rats 118 (male, 180-200 g) were assigned to 11 groups of 10 or 12 rats per group so that each group has approximately the same mean weight. (Day −1) Initiate daily dosing of Groups 1-11 as in TABLE 1. Rats are deprived of food for 24 hours prior to disease initiation. 1) Intra-rectal (IR) administration is accomplished by briefly anesthetizing the rats, administering the test material at 10 ml/kg via a 20 gauge feeding needle inserted via the rectum, maintaining the rat in an inverted position with anus pinched shut until recovered from anesthesia. 2) Oral formulations are first dissolved in 0.05N acetic acid and pH adjusted to 6-7 with 0.1N NaOH. [table] (DAY 0) Prepare TNBS Solution (50% TNBS: 50% 200 proof ethanol; 16 mg/ml TNBS). Dose as in TABLE 3. After 1 hour, rats in Groups 2-11 are administered TNBS. Anesthetize rats and administer 64 mg/kg (4 ml/kg) TNBS Solution into colon of each rat, then re-feed rats. (DAY 7): Rats are weighed and dosed as in Table 3. […]. Terminal blood samples are collected from anesthetized rats. Samples are collected in pre-chilled-tubes and processed to serum. Store serum at −80° C. in several aliquots. A midline incision is made on each animal. Colon is removed and length measured and recorded. A longitudinal incision is made on each colon. Fecal material is gently washed away with saline. Excess fluid is gently blotted and colon weighed. The severity of IBD is assessed using the following scoring system: maximum score=10 • 1) Adhesions: • none=0 • minimal=1 • involving several bowel loops=2 • 2) Strictures: • none=0 • mild=1 • moderate=2 • severe, proximal dilatation=3 • 3) Ulcers: • none=0 • inear ulceration <1 cm=1 • two linear ulcers <1 cm=2 • more sites of ulceration or one large ulcer=3 • 4) Wall thickness: • less than 1 mm=0 • 1-3 mm=1 • >3 mm=2 A section of colon is preserved in 10 volumes of 10% neutral buffered formalin for histopathology. A section of colon is homogenized in PBS, centrifuged, and aliquots of the homogenate in labeled Eppendorf tubes are stored at −80° C. for cytokine analysis.

Test [2] has as its system TNBS (2,4,6-trinitrobenzenesulfonic acid) rat colitis model. The test can be described thus: Prophylactic efficacy study in TNBS rat colitis model, colon histopathology (Example 3). Type of test: in vivo, Sprague-Dawley rats. As to the method:
Prophylactic efficacy study in TNBS (2,4,6-trinitrobenzenesulfonic acid) rat colitis model.
Preparation of doses: For Groups 1, 2: 50 ml 0.1M acetic acid and 30 ml sterile water were combined. The pH was adjusted from 4.45 to 6.7 with 0.1N NaOH. The stir bar was removed and the solution made up to 100 ml with sterile water. For Group 3, 133.9 mg prednisolone 21-hemisuccinate sodium salt was dissolved in 100 ml de-ionized water to prepare a 1 mg/ml solution. For Group 4, 600 mg Nadolol was dissolved in 50 ml 0.1M acetic acid and 30 ml sterile water. The pH was adjusted from 4.45 to 6.7 with 0.1N NaOH, and the solution made up to 100 ml with sterile water. For Group 5, 1.2 g Nadolol was dissolved in 50 ml 0.1M acetic acid and 30 ml sterile water. The pH was adjusted from 4.45 to 6.7 with 0.1N NaOH and the solution made up to 100 ml with sterile water. For Group 6: 1 g cellulose gum was dissolved in 50 ml 0.1N acetic acid and 30 ml de-ionized water. The volume was made up to 100 ml with sterile water. For Group 7, 600 mg Nadolol was dissolved in 50 ml 0.1M acetic acid and 30 ml sterile water. 1 g cellulose gum was added and dissolved into the solution and the solution made up to 100 ml with sterile water. For Group 8, 1.2 g Nadolol was dissolved in 50 ml 0.1M acetic acid and 30 ml sterile water. 1 g cellulose gum was added and dissolved into the solution and the solution made up to 100 ml with sterile water.
(Day −1) 84 Sprague-Dawley rats (male, 160-180 g each) were sorted into treatment groups based upon average body weight. The rats were weighed and food-deprived. The rats in groups 1-5 were dosed orally (PO) at 10 ml/kg with their respective solutions according to Table 2. The rats in Groups 6-8 were anesthetized intra-rectally (IR) instilled with 10 ml/kg of their respective treatment according to Table 2, the anus was pinched closed and the rat held inverted until recovered from anesthesia (at least 1 min).
After 24 hours (day 0), an aqueous solution of TNBS (2,4,6-trinitrobenzenesulfonic acid) 16 mg/ml in 50% ethanol was made and the rats were weighed and dosed as in TABLE 2. One hour later, the rats anesthetized and Groups 2-8 were intra-rectally instilled with 4 ml/kg TNBS solution (64 mg/kg), the anus was pinched closed and the rat held inverted until recovered from anesthesia (at least 1 min). Group 1 received de-ionized water. The rats were re-fed after recovery from TNBS instillation.
The rats were weighed and dosed as in TABLE 2 each day for the next six days (day 2-7), The rats were anesthetized and exsanguinated into pre-chilled serum separator tubes, the blood processed to serum which was stored in several aliquots at −80° C. A midline incision was made in the abdomen and the colon was evaluated for adhesions and stricture. The colon was removed and the length recorded. A midline incision was made the entire length of the colon, the contents removed and the colon weight and colon wall thickness recorded. A section of the colon was preserved in 20 volumes of 10% neutral buffered formalin. The end of the colon section at the rectal end of the section was edged with Evans Blue dye for orientation purposes. Another section of the colon was weighed and homogenized on an ice batch in 5 ml PBS. The homogenate was centrifuged and aliquots stored in labeled Eppendorf tubes at −80° C. The following parameters were used to determine colonic score: • Colonic Score Parameters • a) Adhesions: • 1) none=0 • 2) minimal=1 • 3) involving several bowel loops=2 • b) Strictures: • 1) none=0 • 2) mild=1 • 3) moderate=2 • 4) severe, proximal dilatation=3 • c) Ulcers: • 1) none=0 • 2) linear ulceration <1 cm=1 • 3) two linear ulcers <1 cm=2 • 4) more sites of ulceration or one large ulcer=3 • d) Wall thickness: • 1) less than 1 mm=0 • 2) 1-3 mm=1 • 3) >3 mm=2
The formalin-preserved colon samples were submitted for histological preparation and evaluation. […]

Setting [3] is: 60 mpk, FIG. 5c (route not given, IR by group order of Table 2).
The mark [4] stands for this setting: 60 mpk, FIG. 4d (route not given, PO by group order of Table 2).
Setting [5] is: 120 mpk, FIG. 5a (route not given, PO by group order of Table 2).
[6] abbreviates: 120 mpk, FIG. 5d (route not given, IR by group order of Table 2).
The mark [7] stands for this setting: 10 mpk, FIG. 4c, animal with approximate mean summed score for the group.

As for `CC(C)(C)NCC(O)COc1cccc2c1CC(O)C(O)C2` (centres unmarked) [nadolol], the colon inflammation result in test [1] (IR 6 mpk, FIG. 12i) was “mild (2.0=Mild multifocal infiltrates affecting mucosa, submucosa, outer muscle layers and serosa, affects 11-25% of the total colon)”; in test [1] (IR 19 mpk, FIG. 12j), “moderate (3.0=Moderate multifocal infiltrates affecting mucosa, submucosa, outer muscle layers and serosa, affects 26-50% of the total colon)”; in test [1] (IR 60 mpk, FIG. 12k), “severe (5.0=Severe multifocal to diffuse infiltrates affecting mucosa, submucosa, outer muscle layers and serosa, affects >75% of the total colon)”; in test [1] (PO 6 mpk, FIG. 12d), “mild (2.0=Mild multifocal infiltrates affecting mucosa, submucosa, outer muscle layers and serosa, affects 11-25% of the total colon)”; in test [1] (PO 19 mpk, FIG. 12e), “marked (4.0=Marked multifocal to diffuse infiltrates affecting mucosa, submucosa, outer muscle layers and serosa, affects 51-75% of the total colon)”; in test [1] (PO 60 mpk, FIG. 12f), “severe (5.0=Severe multifocal to diffuse infiltrates affecting mucosa, submucosa, outer muscle layers and serosa, affects >75% of the total colon)”. Also, the colon inflammation result in test [1] (PO 120 mpk, FIG. 12g) is “mild (2.0=Mild multifocal infiltrates affecting mucosa, submucosa, outer muscle layers and serosa, affects 11-25% of the total colon)”; in test [2] (setting [3]) it was “moderate (3.0=Moderate multifocal infiltrates affecting mucosa, submucosa, outer muscle layers and serosa, affects 26-50% of the total colon)”; in test [2] (setting [4]), “moderate (3.0=Moderate multifocal infiltrates affecting mucosa, submucosa, outer muscle layers and serosa, affects 26-50% of the total colon)”; in test [2] (setting [5]), “moderate (3.0=Moderate multifocal infiltrates affecting mucosa, submucosa, outer muscle layers and serosa, affects 26-50% of the total colon)”; in test [2] (setting [6]), “mild (2.0=Mild multifocal infiltrates affecting mucosa, submucosa, outer muscle layers and serosa, affects 11-25% of the total colon)”. Also, the colon necrosis entry is “no” in test [1] (IR 6 mpk, FIG. 12i); “mild (2.0=Mild, focal or multifocal, affects 11-25% of the total colon)” in test [1] (IR 19 mpk, FIG. 12j); “severe (5.0=Severe affects >75% of the total colon)” in test [1] (IR 60 mpk, FIG. 12k); “severe (5.0=Severe affects >75% of the total colon)” in test [1] (PO 6 mpk, FIG. 12d); “marked (4.0=Marked focal or multifocal, affects 51-75% of the total colon)” in test [1] (PO 19 mpk, FIG. 12e); “severe (5.0=Severe affects >75% of the total colon)” in test [1] (PO 60 mpk, FIG. 12f). For the same compound, the colon necrosis result in test [1] (PO 120 mpk, FIG. 12g) was “no”; in test [2] (setting [3]), “moderate (3.0=Moderate focal or multifocal, affects 26-50% of the total colon)”; in test [2] (setting [4]), “moderate (3.0=Moderate focal or multifocal, affects 26-50% of the total colon)”; in test [2] (setting [5]), “mild (2.0=Mild, focal or multifocal, affects 11-25% of the total colon)”; in test [2] (setting [6]), “mild (2.0=Mild, focal or multifocal, affects 11-25% of the total colon)”.

For `C[C@]12C=CC(=O)C=C1CC[C@@H]1[C@@H]2[C@@H](O)C[C@@]2(C)[C@H]1CC[C@]2(O)C(=O)CO` [prednisolone], in test [1] (PO 10 mpk, FIG. 12c), the colon inflammation result is listed as “minimal (1.0=Minimal multifocal infiltrates in mucosa only, affects 2-10% of the total colon)” and the colon necrosis result was “minimal (1.0=Minimal focal or multifocal, affects 2-10% of the total colon)”. Also, in test [2] (setting [7]), the colon inflammation entry was “minimal (1.0=Minimal multifocal infiltrates in mucosa only, affects 2-10% of the total colon)” and the colon necrosis result is reported as “very minimal (0.5=Very minimal, focal, affects <2% of the total colon)”.
